Results: publication PMC3057995, “Potent Anti-Tumor Effect Generated by a Novel Human Papillomavirus (HPV) Antagonist Peptide Reactivating the pRb/E2F Pathway” (PLoS ONE, 2011)
“Also recorded” adds a separate entry of the source.

Columns and labels:
Assay type in all cases: cell-based
[1] = system: mutated cyclin A and E1 promoters; test: Luciferase reporter assay, E2F-site-mutated promoters (pMCCNA-Luc, pMCCNE1-Luc), SiHa; settings: 80 µM, 24 h, E2F binding sites mutated
From the text: HPV16E7-pEYFP plasmid was constructed by sub-cloning the HPV16E7 gene into the EcoRI and BamHI sites of pEYFP-N1. The HPV16E7 gene was obtained by PCR from HPV16E7- pET28a (+) plasmid, which was maintained by our laboratory, using primers pE7N1f and pE7N1b. The pRb gene was obtained by nest PCR from HeLa cDNA using pRb1, pRb2, pRb3, pRb4 as primers. The PCR product was then inserted into the HindIII and Xho I sites of pcDNA3.1-His/V5-Topo. pA3-Luc-Cyclin D1 luciferase reporter plasmid containing the cyclin D1 promoter sequence −1745 to +134 was maintained by our laboratory. Both pCCNE1-Luc and pCCNA1-Luc were constructed by nest PCR to amplify fragments of cyclins E1 and A promoter sequences (cyclin E1: +3 to +594; cyclin A: −284 to +254) which include E2F binding sites, [47] from HeLa cDNA, respectively. Primers used in pCCNE1-Luc construction were P(CCE1), P(CCE2), P(CCE3), and P(CCE4), while primers P(CCA1), P(CCA2), P(CCA3), and P(CCA4) were used in PCCNA1-Luc construction. The PCR products were then cloned into the Kpn1 and Bgl II sites of the pGL3-enhancer (Promega, Madison, WI, USA) luciferase reporter plasmid. […]
The reporter assays were performed using Bright-Glo™ Luciferase Assay System (Promega, Madison, WI, USA) according to the manufacturer's instructions. […] Each sample was determined in triplicate. […]

[2] = system: HPV16E7/pRb interaction; test: Co-IP of HPV16 E7 and pRb in Cos7 cells; settings: Cos7 co-transfected, 80 µM Pep-7
Description: For Co-IP, Cos-7 cells seeded in 100 mm plates were co-transfected with HPV16E7-pEYFP-N1 and pRb-pcDNA3.1 using the PEI reagent (Sigma-aldich Chemie GmbH, Steinheim, Germany) described previously. […] Lysate supernate prepared as above were incubated with 10 µl rabbit anti-pRb antibody or mouse anti-flag (negative control) antibody and washed protein G agarose beads (Amersham Biosciences, Little Chalfont, UK) overnight at 4°C under continuous agitation. Beads were subsequently washed four times with the lysis buffer. Bound proteins were eluted by boiling in a Laemmli sample buffer and subjected to western blot assay.

[3] = system: cyclin A, E1 and D1 promoters containing E2F binding sites; test: Luciferase reporter assay, CaSki; settings: 80 µM, 24 h, means ± SE, three experiments
Description: (§1) The reporter assays were performed using Bright-Glo™ Luciferase Assay System (Promega, Madison, WI, USA) according to the manufacturer's instructions. Briefly, cells were plated in 12-well plates at a density of 1.5×10^5 cells/well. The following day, cells were transfected with reporter constructs. […] Thereafter, cell lysates were collected for reporter assays. The luciferase reporter activity of each sample was normalized against the corresponding protein content prior to calculation of the fold induction value relative to the controls. Each sample was determined in triplicate. The results represent means ± SE from three experiment runs.

[4] = system: SiHa cells; test: PI staining cell cycle analysis by flow cytometry; settings: for percentage of cells in S-phase: control 25.96%
Description: Cell cycle distribution was determined by flow cytometry DNA analysis. […] After 24 h, cells were harvested and counterstained with PI (Invitrogen, Carlsbad, CA, USA) for flow cytometry according to the manufacturer's instructions. Briefly, cells were trypsinized and resuspended in 1 ml PBS. Cell suspension was dropped slowly into 4 ml anhydrous ethanol pre-cooled at −20°C and mixed. After standing at −20°C for more than 15 min, the ethanol was removed by centrifugation, after which 5 ml PBS was added and mixed, and cells were re-hydrated at room temperature for 15 min. PBS was then removed by centrifugation. Cells were stained with 2 µg/ml propidium iodide in 1 ml dilution buffer (100 mmol/L Tris, pH 7.4, 150 mmol/L NaCl, 1 mmol/L CaCl2, 0.5 mmol/L MgCl2, 0.1% Nonidet P-40, 100 µg/ml RNAase) at room temperature for 15 min and subjected to flow cytometry analysis. Analysis was performed on an Epics-XL flow cytometer (Beckman Coulter, Inc. CA, USA) with Modfit 3.0 software (Verity Software House, Topsham, ME, USA).

[5] = system: cyclin A, E1 and D1 promoters containing E2F binding sites; test: Luciferase reporter assay, SiHa; settings: 80 µM, 24 h
Description: SiHa cells were co-transfected with E2F-responsive luciferase reporter plasmids and siRNA of Rb, p130 and p107, respectively.
The cells were seeded in 12-well plate at a density of 3×10^5 cells/well. The following day, cells were transfected with SiRNA and luciferase reporter plasmids or siRNA alone, respectively, using LipofectAMINE 2000 as described in the manufacturer's protocol (Invitrogen, Carlsbad, CA, USA).
as §1

## SACPKGLDWCGG (C&C bridged by disulfide bonds) (disulfide) [Pep-7]
[1]
  activities of mutated promoters (pMCCNA-Luc, pMCCNE1-Luc): negligible differences from those in control groups
[2]
  co-immunoprecipitation of HPV16E7 with pRb: HPV16E7 could not be immunoprecipitated by the pRb antibodies
[3]
  activities of cyclin A, E1 and D1 promoters: remarkable down-regulation
[4]; 32 µM Pep-7, 24 h
  percentage of cells in S-phase: 14.75%
[4]; 80 µM Pep-7, 24 h
  percentage of cells in S-phase: 8.75%
[4]; 24 h, 32 and 80 µM, p<0.02
  G1-to-S phase transition: inhibited G1-to-S phase transition of SiHa cells significantly; also recorded: induced G1 arrest in SiHa cells
[5]; means ± SE, three experiments
  activities of cyclin A, E1 and D1 promoters: remarkable down-regulation
[5]; p130 or p107 siRNA
  influence of p130 or p107 knock-down on Pep-7 suppression of promoters: did not affect the influence of Pep-7 on these promoters
[5]; pRb siRNA
  influence of pRb knock-down on Pep-7 suppression of promoters: abrogated the suppression of cyclin A, E1 and D1 promoter activities by Pep-7
